Like-named read-outs stand apart in the source and are kept apart here.
Tests used:
[1] = system: HIV; set-up: method as in earlier work; conditions: SAILING, cited from earlier work
[2] = system: UGT2B7; set-up: method as in PMID 23132334; conditions: in vitro; cited from earlier work
[3] = system: BCRP; set-up: method as in PMID 23132334; conditions: in vitro; cited from earlier work
[4] = cited from earlier work
[5] = Urinary metabolic profile of DTG (pooled urine); assay type: in vivo, human; conditions: pooled urine 0-24 h, n=12, mean (standard deviation)
Protocol: (§1) There was no washout between treatment periods. All doses were administered in the fasting state.
(§2) Urine samples were collected at intervals of 0 to 12 hours and 12 to 24 hours after each treatment period. Individual urine pools were produced for each subject in a given treatment group by combining proportional volumes (% of total volume) from the 0- to 12-hours and 12- to 24-hours collections. Individual pooled human plasma samples were prepared for each subject and treatment group.
(§3) Each pooled plasma sample was mixed with aqueous EDTA disodium salt solution (10 mg/mL) and subsequently extracted 3 times with methanol and acetonitrile. Pooled urine samples were lyophilised and the residue was reconstituted in water:methanol (90:10 v/v). Drug-related components in plasma extracts and urine samples were separated on a 100 × 4.6 mm 3.5-micron Symmetry C18 column (Waters Associates) at 40°C by a step-gradient elution method with a mobile phase composition of water:acetonitrile containing 0.1% ammonium acetate starting at 95:5 (v/v) and ending at 5:95 (v/v) over 50 minutes. The eluate was analysed by multistage mass spectrometry (MSn) using an LTQ Orbitrap™ Hybrid Mass Spectrometer with Xcalibur 2.07 software (Thermo Fisher Scientific, Bremen, Germany). Data-dependent scanning using an accurate mass list, consisting of all previously characterised metabolites, was used in addition to analysis of pre-dose samples to aid in the distinction of drug-related material from endogenous components.

[6] = Safety evaluations, interaction study with TPV/r; assay type: in vivo, human; conditions: healthy subjects n=18
Protocol: (§4) In both studies, safety evaluations [adverse event (AE) reporting, clinical chemistry laboratory tests, urinalysis, vital signs and electrocardiogram] were performed throughout the study. Given the known hepatotoxicity profile of TPV/r, more frequent monitoring of liver chemistries was performed in the TPV/r study, and conservative stopping criteria were employed such that any subject reaching a grade 2 increase in alanine aminotransferase (ALT) or aspartate aminotransferase (AST) was discontinued from the trial. Both trials were conducted as inpatient studies with subjects housed in the unit for the duration of the study. The studies were conducted in accordance with the principles of the Declaration of Helsinki. A written informed consent was obtained from all subjects, and both protocols were approved by the institutional review board of the study sites.

[7] = set-up: method as in PMID 23075918; conditions: DTG 50 mg twice daily with rifampin; cited from earlier work
[8] = system: CYP3A4; conditions: cited from earlier work
[9] = set-up: method as in earlier work; conditions: SAILING, DTG 50 mg once daily with EFV- or TPV/r-containing background regimens, n=16; cited from earlier work
[10] = Safety evaluations, interaction study with EFV; assay type: in vivo, human; conditions: healthy subjects n=12
Protocol: as §4

[11] = set-up: method as in PMID 19884365; conditions: healthy subjects; cited from earlier work
[12] = system: CYP isozymes; set-up: method as in PMID 23132334; conditions: in vitro; cited from earlier work
[13] = system: CYP1A2; set-up: method as in PMID 23132334; conditions: in vitro; cited from earlier work
[14] = system: UGT1A1; set-up: method as in PMID 23132334; conditions: in vitro; cited from earlier work
[15] = Plasma metabolic profile of DTG (pooled plasma); assay type: in vivo, human; conditions: individual 24-h proportionally pooled plasma, DTG alone and DTG + EFV
Protocol: as §1, §2
as §3, with “Data-dependent scanning using an accurate mass list, consisting of all previously characterised metabolites, was used in addition to analysis of pre-dose samples to aid in the distinction of drug-related material from endogenous components.” left out

[16] = system: OATP1B3; set-up: method as in PMID 23132334; conditions: in vitro; cited from earlier work
[17] = system: MRP2; set-up: method as in PMID 23132334; conditions: in vitro; cited from earlier work
[18] = system: CYP3A4; conditions: in vivo; cited from earlier work

C[C@@H]1CCO[C@H]2Cn3cc(C(=O)NCc4ccc(F)cc4F)c(=O)c(O)c3C(=O)N12 [DTG, Dolutegravir]
week 48 Snapshot response rate ([1]; DTG 50 mg once daily with EFV- or TPV/r-containing background regimens, n=16): 56.3%
week 48 Snapshot response rate ([1]; subjects not on these inducers or inhibitors (atazanavir and atazanavir/ritonavir)): 74.4%
direct inhibition of UGT2B7 [2]: minimal or no direct inhibition
direct inhibition of BCRP [3]: minimal or no direct inhibition
C0 ([4]; DTG 50 mg once daily without inducers, phase III studies in INI-naive populations): approximately 1.2 μg/mL
C0 (equivalent to C τ), geometric mean ([4]; VIKING-3, DTG 50 mg twice daily with EFV and TPV/r in background regimens, n=18, CV 63 %): 1.62 µg/mL
C0 higher than with DTG 50 mg once daily without inducers ([4]; VIKING-3, DTG 50 mg twice daily with EFV and TPV/r in background regimens, n=18): 35%
% DTG ([5]; DTG 50 mg + EFV q24h): 100%
% Total drug-related response ([5]; DTG 50 mg + EFV q24h): 6.2 (5.0) %
% DTG ([5]; DTG 50 mg q24h): 100%
% Total drug-related response ([5]; DTG 50 mg q24h): 6.4 (1.8) %
subjects reporting headache [6]: 11%
C τ higher than with DTG 50 mg once daily alone [7]: 22%
induction of CYP3A4 [8]: not an inducer
lower average DTG pre-dose (C 0) concentration [9]: 78%
pre-dose (C 0) concentration, geometric mean [9]: 0.186 µg/mL
subjects reporting at least one AE [10]: 17%
tolerability ([10]; repeat doses): generally well tolerated
effect on midazolam exposure [11]: no significant effect
direct inhibition of CYP isozymes [12]: minimal or no direct inhibition
induction of CYP1A2 [13]: not an inducer
direct inhibition of UGT1A1 [14]: minimal or no direct inhibition
share of drug-related material in plasma [15]: > 97%
direct inhibition of OATP1B3 [16]: minimal or no direct inhibition
direct inhibition of MRP2 [17]: minimal or no direct inhibition
component of metabolism via CYP3A4 [18]: ~10%

— paper PMC4158172 (European Journal of Clinical Pharmacology, 2014)
